In patent publication US11478461B2, “[1.1.1] bicyclo compounds as indoleamine 2,3-dioxygenase inhibitors” (Merck Sharp & Dohme Corp., priority 2018, dated 2022):
pIC50: −log10 of the molar value.

Target: IDO1 (Homo sapiens, UniProt P14902)
Test: IDO1 Cellular Assay in Hela Cells Stimulated with IFNγ
Format: cell-based
Conditions: IFNγ 100 ng/mL, 300 uM L-tryptophan, about 48 hours, fluorescence readout, read-out: IDO1 HELA Cell Assay, IC50
Method: Biological Assays IDO1 Cellular Assay in Hela Cells Stimulated with IFNγ
Hela cells were cultured in complete Hela culture medium ([…], 10% heat-inactivated fetal bovine serum) and expanded to about 1×10^9 cells. The cells were then collected and frozen down at 10×10^6 cells/vial in 1 mL frozen medium (90% complete Hela culture medium, 10% DMSO).
Compounds to be tested were serially diluted in ten 3-fold steps in DMSO starting from 10 mM DMSO stocks in Echo low volume plate(s). Compound dilutions or DMSO alone were then dispensed from the dilution plate(s) into Greiner black 384-well assay plate(s) (catalog #781086, 50 nL/well) using an Echo 550 acoustic liquid handler (Labcyte).
Frozen Hela cells were thawed and transferred into Hela assay medium (99% complete Hela culture medium, 1% Pen/Strep) with 20 mL medium/vial of cells. The cells were spun down at 250 g in a table top centrifuge for 5 min and suspended in same volume of Hela assay medium. […] Sterile L-tryptophan were added to the cells with final concentration of 300 uM L-tryptophan. A small aliquot (2 mL/plate) of Hela cells were set aside and were not treated with IFNγ, to serve as the Max-E control. The rest of Hela cells were added with sterile IFNγ (Cat #285-IF, R & D systems) with a final concentration of 100 ng/mL.
Hela cells with and without IFNγ were dispensed to the respective wells of 384-well assay plates containing the compounds. The plates were incubated for about 48 hours at a 37° C., 5% CO2 incubator. Afterwards, 12 μL of 0.5 M methyl isonipecotate in dimethyl sulfoxide were added into each well and the plates were sealed and incubated at 37° C. without CO2 overnight. The plates were centrifuged for 1 min at 200×g. The resulting fluorescence was measured in a Spectramax plate reader (Molecular Devices) with a 400 nm excitation filter and a 510 nm emission filter.
Potencies were calculated by […] least squares fit to the four parameter logistic IC50 equation.

Chain of IDO1 (P14902 whole entry): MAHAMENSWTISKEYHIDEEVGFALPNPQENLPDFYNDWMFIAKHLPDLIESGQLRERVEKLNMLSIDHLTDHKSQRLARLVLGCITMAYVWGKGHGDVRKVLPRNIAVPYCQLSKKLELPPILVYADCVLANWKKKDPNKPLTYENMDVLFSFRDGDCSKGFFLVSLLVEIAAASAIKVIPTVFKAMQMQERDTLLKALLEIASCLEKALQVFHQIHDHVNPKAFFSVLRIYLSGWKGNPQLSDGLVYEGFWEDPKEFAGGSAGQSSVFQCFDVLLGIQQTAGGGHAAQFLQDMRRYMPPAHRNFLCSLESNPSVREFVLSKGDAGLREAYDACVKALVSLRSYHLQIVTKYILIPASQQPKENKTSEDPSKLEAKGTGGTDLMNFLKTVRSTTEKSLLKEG

Structure (SMILES)	pIC50
CC(C(=O)Nc1ccc(Cl)nc1)C12CC(NC(=O)c3cccc(Cl)c3)(C1)C2 (single isomer, unassigned) [Example 16, 3-chloro-N-(3-(1-((6-chloropyridin-3-yl)amino)-1-oxopropan-2-yl)bicyclo[1.1.1]pentan-1-yl)benzamide]	6.74
CC(C(=O)Nc1ccc(F)cc1)C12CC(NC(=O)c3ccn4ccccc34)(C1)C2 (stereo not drawn) [Example 127, N-[3-[2-(4-fluoroanilino)-1-methyl-2-oxo-ethyl]-1-bicyclo[1.1.1]pentanyl]indolizine-1-carboxamide]	6.73
Cc1cc(C(=O)NC23CC(C(C)C(=O)Nc4ccc(F)cc4)(C2)C3)n(C)n1 (stereo not drawn) [Example 139, N-[3-[2-(4-fluoroanilino)-1-methyl-2-oxo-ethyl]-1-bicyclo[1.1.1]pentanyl]-2,5-dimethyl-pyrazole-3-carboxamide]	6.40
Cc1ccc(C(=O)NC23CC(C(C)C(=O)Nc4ccc(F)cc4)(C2)C3)cn1 (stereo not drawn) [Example 132, N-[3-[2-(4-fluoroanilino)-1-methyl-2-oxo-ethyl]-1-bicyclo[1.1.1]pentanyl]-6-methyl-pyridin-1-ium-3-carboxamide]	6.60
C[C@H](C(=O)Nc1ccc(F)cc1)C12CC(NC(=O)Nc3ccc(F)cc3)(C1)C2 [Example 85, (S)-N-(4-fluorophenyl)-2-(3-(3-(4-fluorophenyl)ureido)bicyclo [1.1.1]pentan-1-yl)propanamide]	7.14
C[C@H](C(=O)Nc1ccc(F)cc1)C12CC(NC(=O)c3cccc(Cl)c3F)(C1)C2 [Example 51, 3-chloro-2-fluoro-N-[3-[(1S)-2-(4-fluoroanilino)-1-methyl-2-oxo-ethyl]-1-bicyclo[1.1.1]pentanyl]benzamide]	6.65
C[C@H](C(=O)Nc1ccc(F)cc1)C12CC(NC(=O)Nc3cccc4ccccc34)(C1)C2 [Example 86, (S)-N-(4-fluorophenyl)-2-(3-(3-(naphthalen-1-yl)ureido)bicyclo[1.1.1]pentan-1-yl)propanamide]	7.07
C[C@@H](C(=O)Nc1cnc(F)c(F)c1)C12CC(NC(=O)c3ccc(Cl)c(Cl)c3)(C1)C2 [Example 88, (R)-3,4-Dichloro-N-(3-(1-((5,6-difluoropyridin-3-yl)amino)-1-oxopropan-2-yl)bicyclo[1.1.1]pentan-1-yl)benzamide]	6.50
Cc1nc(C)c(C(=O)NC23CC(C(C)C(=O)Nc4ccc(F)cc4)(C2)C3)s1 (stereo not drawn) [Example 136, N-[3-[2-(4-fluoroanilino)-1-methyl-2-oxo-ethyl]-1-bicyclo[1.1.1]pentanyl]-2,4-dimethyl-thiazole-5-carboxamide]	6.50
Cc1cncc(C(=O)NC23CC(C(C)C(=O)Nc4ccc(F)cc4)(C2)C3)c1 (stereo not drawn) [Example 122, N-[3-[2-(4-fluoroanilino)-1-methyl-2-oxo-ethyl]-1-bicyclo[1.1.1]pentanyl]-5-methyl-pyridin-1-ium-3-carboxamide]	6.88
CCOc1cccc(C(=O)NC23CC(C(C)C(=O)Nc4ccc(F)cc4)(C2)C3)n1 (stereo not drawn) [Example 138, 6-ethoxy-N-[3-[2-(4-fluoroanilino)-1-methyl-2-oxo-ethyl]-1-bicyclo[1.1.1]pentanyl]pyridin-1-ium-2-carboxamide]	6.41
CC(C(=O)Nc1ccc(F)cc1)C12CC(NC(=O)c3cccc4ccnn34)(C1)C2 (stereo not drawn) [Example 126, N-[3-[2-(4-fluoroanilino)-1-methyl-2-oxo-ethyl]-1-bicyclo[1.1.1]pentanyl]pyrazolo[1,5-a]pyridin-1-ium-7-carboxamide]	6.74
C[C@H](C(=O)Nc1ccc(F)cc1)C12CC(NC(=O)OC(C)(C)C)(C1)C2 (single isomer, unassigned) [Example 32]	6.94
C[C@@H](C(=O)Nc1cnc(Cl)nc1)C12CC(NC(=O)c3ccc(Cl)c(Cl)c3)(C1)C2 [Example 90, (R)-3,4-dichloro-N-(3-(1-((2-chloropyrimidin-5-yl)amino)-1-oxopropan-2-yl)bicyclo[1.1.1]pentan-1-yl)benzamide]	6.93

The next compounds have a higher pIC50 than those just listed; values first:

pIC50	Structure (SMILES)
7.16	CC(C(=O)Nc1ccc(F)cc1)C12CC(NC(=O)c3cc4ccccn4c3)(C1)C2 (stereo not drawn) [Example 116, N-[3-[2-(4-fluoroanilino)-1-methyl-2-oxo-ethyl]-1-bicyclo[1.1.1]pentanyl]indolizine-2-carboxamide]
7.22	C[C@H](C(=O)Nc1ccc(F)c(C(F)(F)F)c1)C12CC(NC(=O)c3ccc(Cl)c(Cl)c3)(C1)C2 [Example 95, (S)-3,4-dichloro-N-(3-(1-((4-fluoro-3-(trifluoromethyl)phenyl)amino)-1-oxopropan-2-yl)bicyclo[1.1.1]pentan-1-yl)benzamide]
7.22	Cc1noc(C(=O)NC23CC(C(C)C(=O)Nc4ccc(F)cc4)(C2)C3)n1 (stereo not drawn) [Example 114, N-[3-[2-(4-fluoroanilino)-1-methyl-2-oxo-ethyl]-1-bicyclo[1.1.1]pentanyl]-3-methyl-1,2,4-oxadiazole-5-carboxamide]
7.25	Cc1cc(C(=O)NC23CC([C@H](C)C(=O)Nc4ccc(F)cc4)(C2)C3)ccc1C#N [Example 151, (S)-4-cyano-N-(3-(1-((4-fluorophenyl)amino)-1-oxopropan-2-yl)bicyclo[1.1.1]pentan-1-yl)-3-methylbenzamide]
7.33	CC(C)(NC(=O)c1ccc(F)cc1)C12CC(NC(=O)c3ccc(Cl)c(Cl)c3)(C1)C2 [Example 103, 3,4-Dichloro-N-(3-(2-(4-fluorobenzamido)propan-2-yl)bicyclo[1.1.1]pentan-1-yl)benzamide]
7.44	CC(C(=O)Nc1ccc(Cl)c(F)c1)C12CC(NC(=O)c3cccc(Cl)c3)(C1)C2 (single isomer, unassigned) [Example 10, 3-chloro-N-(3-(1-((4-chloro-3-fluorophenyl)amino)-1-oxopropan-2-yl)bicyclo[1.1.1]pentan-1-yl)benzamide]
7.54	CC(C(=O)Nc1ccc(Cl)cc1)C12CC(NC(=O)OC3CC3)(C1)C2 (single isomer, unassigned) [Example 20, Cyclopropyl (3-(1-((4-chlorophenyl)amino)-1-oxopropan-2-yl)bicyclo [1.1.1]pentan-1-yl) carbamate]
7.55	Cc1ncc(C(=O)NC23CC([C@H](C)C(=O)Nc4ccc(F)cc4)(C2)C3)cc1F [Example 65, 5-fluoro-N-[3-[(1S)-2-(4-fluoroanilino)-1-methyl-2-oxo-ethyl]-1-bicyclo[1.1.1]pentanyl]-6-methyl-pyridin-1-ium-3-carboxamide]
7.57	C[C@H](C(=O)Nc1ccc(F)cc1)C12CC(NC(=O)c3ccc(Cl)c(Cl)n3)(C1)C2 [Example 149, (S)-5,6-dichloro-N-(3-(1-((4-fluorophenyl)amino)-1-oxopropan-2-yl)bicyclo[1.1.1]pentan-1-yl)picolinamide]
7.64	C[C@H](C(=O)Nc1ccc(C(F)(F)F)cc1)C12CC(NC(=O)c3ccc(Cl)c(Cl)c3)(C1)C2 [Example 98, (S)-3,4-dichloro-N-(3-(1-oxo-1-((4-(trifluoromethyl)phenyl)amino)propan-2-yl)bicyclo[1.1.1]pentan-1-yl)benzamide]
7.66	C[C@H](C(=O)Nc1ccc(F)cc1)C12CC(NC(=O)OCc3ccccc3)(C1)C2 [Example 78, benzyl (S)-(3-(1-((4-fluorophenyl)amino)-1-oxopropan-2-yl)bicyclo[1.1.1]pentan-1-yl)carbamate]
7.68	O=C(NC12CC(C3(C(=O)Nc4ccc(F)cc4)COC3)(C1)C2)c1cccc(Cl)c1 [Example 104, 3-(3-(3-Chlorobenzamido)bicyclo[1.1.1]pentan-1-yl)-N-(4-fluorophenyl)oxetane-3-carboxamide]
7.72	CC(C)(C(=O)Nc1ccc(F)cc1)C12CC(NC(=O)c3cccc(Cl)c3)(C1)C2 [Example 102, 3-Chloro-N-(3-(1-((4-fluorophenyl)amino)-2-methyl-1-oxopropan-2-yl)bicyclo[1.1.1]pentan-1-yl)benzamide]
7.88	C[C@H](C(=O)Nc1ccc(F)cc1)C12CC(NC(=O)c3ccnc(C(F)(F)F)c3)(C1)C2 [Example 66, N-[3-[(1S)-2-(4-fluoroanilino)-1-methyl-2-oxo-ethyl]-1-bicyclo[1.1.1]pentanyl]-2-(trifluoromethyl)pyridin-1-ium-4-carboxamide]
8.11	C[C@H](C(=O)Nc1cncc(Cl)c1)C12CC(NC(=O)c3ccc(Cl)c(Cl)c3)(C1)C2 [Example 94, (S)-3-chloro-5-(2-(3-(3,4-dichlorobenzamido)bicyclo[1.1.1]pentan-1-yl)propanamido)pyridin-1-ium 2,2,2-trifluoroacetate]
8.30	C[C@@H](C(=O)Nc1ccc(F)cc1)C12CC(NC(=O)c3cccc(C(F)(F)F)c3)(C1)C2 [Example 42, N-[3-[(1R)-2-(4-fluoroanilino)-1-methyl-2-oxo-ethyl]-1-bicyclo[1.1.1]pentanyl]-3-(trifluoromethyl)benzamide]
